Article PMC12040169 (PLOS Biology, 2025)

assay: in vitro; details: human, hela cells, % viability

Row | SMILES | viability at 28.5 h, 10 µM [%]
1 | COCCn1cnnc1CN(C)C(=O)NC(C)c1nc2ccccc2[nH]1 (centres unmarked) [CBK307155] | 99.6
2 | O=C1CCC(=O)N1CCOc1nccnc1OC1CCN(Cc2ccc([N+](=O)[O-])cc2)CC1 [CBK084343] | 95.7
3 | COc1ccc2[nH]c3c(c2c1)CCN(C(C)=O)C31CCNCC1 [CBK284429] | 79.1
4 | O=C(Nc1ccc(Cl)c(Cl)c1)c1cnc2n(c1=O)CCS2 [CBK287381] | 108
5 | O=C(CC1(O)C(=O)N(CN2CCOCC2)c2ccccc21)c1ccc2c(c1)OCO2 (centres unmarked) [CBK269639] | 99.3
6 | O=C1N=C(NC2CCCC2)OC12CCN(Cc1ccccc1)CC2 [CBK115430] | 103
7 | O=S(=O)(Nc1cccc(Cl)c1)c1ccc(Cl)c(Cl)c1 [CBK044636] | 79.3
8 | O=C(O)c1c[nH]cn1 [CBK260978G] | 97
9 | CC(C)C[C@@H]1N[C@H](C(=O)NC2CCC2)Cc2cn(Cc3nccn3C)c3cccc1c23 [CBK289422] | 101
10 | COc1ccc(C(=O)/C=C/Nc2ccc(S(=O)(=O)NC(=N)N)cc2)cc1 [CBK262277] | 84.1
11 | CCN(CC)CCNC(=O)c1ccc(C(=O)O)c(C)n1 [CBK304248] | 85.9
12 | COc1ccc(C2(C(=O)N[C@H]3CC[C@H](O)CC3)CC2)cc1 [CBK149840] | 111
13 | CCN(CC)C(=O)C1CCCN(C(=O)Nc2ccc(Cl)cc2)C1 (centres unmarked) [CBK156136] | 90.1
14 | CC(=O)N1CCN(Cc2c(C3CCCC3)[nH]c3ncccc23)CC1 [CBK285339] | 80
15 | COC(=O)c1c(NC(=S)Nc2cn(C)nc2C(N)=O)sc2c1CCCCC2 [CBK266849] | 93.4
16 | COc1ccccc1N1CCN(CCC(=O)Nc2ccccc2F)CC1 [CBK264313] | 106
17 | Cc1ccc2nc(/C(C#N)=C/c3ccc(-c4ccc(S(N)(=O)=O)cc4)o3)[nH]c2c1 [CBK266386] | 94
18 | COC(=O)c1cccc(OCCn2c(=O)c(C#N)cn(C3CC3)c2=O)c1 [CBK305990] | 98.6
19 | COCCCN1C(=O)c2[nH]nc(-c3cc(C)c(C)cc3O)c2C1c1ccc(SC)cc1 (centres unmarked) [CBK268884] | 89
20 | CCCCN(CCCC)c1nccnc1Cl [CBK001576] | 94.7
21 | CCc1cc(Br)ccc1S(=O)(=O)NC1CCOC1=O (centres unmarked) [CBK044385] | 97.5
22 | Cc1ccccc1NC(=O)c1c(NC(=O)Cc2ccccc2)sc2c1CCCC2 [CBK262572] | 108

Row | SMILES | viability at 28.5 h, 10 µM [%]
23 | CC1CCC(N2CCN(Cc3ccccn3)CC2)CC1 (centres unmarked) [CBK263473] | 90.6
24 | COc1ccc2c(c1OC)C(=O)N(c1cccc(/C=C/C(=O)O)c1)C2 [CBK109932] | 90.3
25 | CN(C)CCCNc1oc(/C=C/c2cccs2)nc1C#N [CBK269317] | 86.7
26 | Cc1nc([N+](=O)[O-])c(C(=O)OCc2ccccc2C#N)n1C [CBK293991] | 82.1
27 | Cc1cc(C(=O)N2CCN(C(=O)c3ccco3)CC2)n[nH]1 [CBK144447] | 98.9
28 | O=C(c1cscn1)N1CCCc2ccccc21 [CBK200348] | 102
29 | O=C(Nc1ccccc1C(=O)NCCN1CCOCC1)c1cccs1 [CBK270077] | 94.4
30 | Cc1ccc(S(=O)(=O)Nc2ccnc(-c3ccc(CO)cc3)n2)cc1 [CBK067477] | 90.4
31 | O=C(Cc1ccccc1)N1CCC(CC(=O)N2CCC3(CCCCC3)C2)CC1 [CBK286031] | 93.8
32 | CN(C)CCN(C)c1cncc(-c2cccc(N)c2)n1 [CBK065270] | 87.3
33 | CN(C)C(=O)c1ccc(-c2ncc(OCCN3CCOCC3)nc2N)cc1 [CBK145183] | 93.1
34 | O=C(c1cccs1)N1C[C@@H]2C[C@H](C1)c1c(-c3cncnc3)ccc(=O)n1C2 [CBK289194] | 90.7
35 | CC(=O)Nc1ccc(N2C(=O)CSC2c2ccccc2[N+](=O)[O-])cc1 (centres unmarked) [CBK294443] | 110
36 | CCOC(=O)c1sc2ncccc2c1N [CBK115371] | 83.9
37 | COc1ccc(S(=O)(=O)N(C)CC(=O)NCc2cccnc2)cc1Cl [CBK268089] | 108
38 | CN1CCN(CC(=O)Nc2ccc(OCc3ccccc3)cc2)CC1 [CBK264844] | 103
39 | FC(F)(F)c1cccc(CN2CCC(N3CCCCC3)CC2)c1 [CBK261855] | 90.1
40 | CN(Cc1ccccc1)c1ncc(-c2ccc(N3CCOCC3)cc2)n2ccnc12 [CBK091275] | 99.7
41 | CCC(=O)Nc1nc2ccccc2n1CCN1CCOCC1 [CBK261477] | 101
42 | CC(C)CNc1nc(-c2cccc(O)c2)cnc1N [CBK063862] | 99.1
43 | Cn1cc(-c2nc(C3CCCCCN3C(=O)c3cccnc3)no2)cn1 (centres unmarked) [CBK305387] | 87.9
44 | CCc1nn(C)cc1CN1CCOC(c2nc(C(C)(C)C)cs2)C1 (centres unmarked) [CBK304513] | 104

Row | SMILES | viability at 28.5 h, 10 µM [%]
45 | Cc1cc(C)nc(SCC(=O)Nc2ccc(C(=O)O)cc2)n1 [CBK263223] | 97.8
46 | Cc1ccc(-n2nc(C(=O)O)c(C)c(C#N)c2=O)cc1C [CBK286987] | 93.3
47 | COc1cc(CNC(=O)c2cnoc2-c2ccc(Br)cc2)cc(OC)c1OC [CBK154893] | 110
48 | O=C(c1ccoc1)N1CCN(S(=O)(=O)c2ccc3c(c2)Cc2cc(S(=O)(=O)N4CCN(C(=O)c5ccco5)CC4)ccc2-3)CC1 [CBK262299] | 113
49 | O=C(O)/C(Cl)=C(\Cl)C(=O)N1CCC2(CC1)OCCc1c2[nH]c2ccccc12 [CBK047035] | 85
50 | Cc1cc(=O)nc(SC(C)C(=O)O)[nH]1 (centres unmarked) [CBK264630] | 95.3
51 | O=C(CCNc1n[nH]c(=O)[nH]c1=O)N/N=C/c1ccc(C(F)(F)F)cc1 [CBK263518] | 87.7
52 | CC(C)(C)OC(=O)NCc1ccc(CNCc2cc(F)cc(F)c2)cc1 [CBK056707] | 107
53 | Cc1n[nH]c(-c2ccccc2NS(=O)(=O)c2cnn(C(C)C)c2)n1 [CBK306377] | 84.1
54 | CC(C)N1C(=O)[C@@H]2CN(C(=O)C3CCCC3)CCN2C1=O [CBK289612] | 88.8
55 | COc1cc(NC(=O)c2ccc3c(c2)C(=O)N(Cc2ccco2)C3=O)c(C(=O)O)cc1OC [CBK267436] | 105
56 | COc1ccc2oc(C(=O)NC(C)(C)CN3CCCCC3)cc2c1 [CBK282053] | 93.8
57 | CO[C@H]1CN(C)C[C@@H]1NC(=O)c1cccc2c1NCCC2 [CBK307107] | 106
58 | NS(=O)(=O)c1cccc2c1CC1(CC2)OCCO1 [CBK010703] | 84.6
59 | COCCn1c(SCc2cn3ccccc3c2C#N)nc(C)c1C [CBK306282] | 92.4
60 | COc1cccc(C2(O)CCC3CN(C(C)=O)CC32)c1 (centres unmarked) [CBK283222] | 95.8
61 | Cc1cc(I)ccc1NC(=O)CCN1C(=O)c2cccc([N+](=O)[O-])c2C1=O [CBK263128] | 88.3
62 | CCN(CC(=O)NCc1cccnc1)S(=O)(=O)c1ccc(F)cc1 [CBK269503] | 85.3
63 | COc1cccc(NC(=O)c2ccc(-c3ccsc3)nc2NCC2CC2)c1 [CBK106227] | 90.5
64 | O=C(Cn1ncc2cccn2c1=O)c1ccc(F)cc1 [CBK283627] | 82.7
65 | Cc1ccc(CC(=O)N2CCC(Cc3ccccc3-c3ccccc3)(C(N)=O)CC2)cc1 [CBK285740] | 110
66 | Brc1ccsc1-c1csc(-c2ccccc2)n1 [CBK019859] | 102

Row | SMILES | viability at 28.5 h, 10 µM [%]
67 | FC(F)(F)c1ccc(N2CCNCC2)nc1OCCOc1ccc2ccccc2c1 [CBK200002A] | 92.1
68 | FC(F)(F)c1ccnc(OC2CCNC2)n1 (centres unmarked) [CBK113296] | 92.1
69 | CCC1c2cccn2CCN1C(=O)c1cc(-c2ccccn2)n[nH]1 (centres unmarked) [CBK283224] | 102
70 | CN(Cc1ccccc1)C(C#N)c1c[nH]c2ccccc12 (centres unmarked) [CBK087062] | 95.3
71 | Cc1cc(C)c(S(=O)(=O)N2CCC(C(=O)Nc3ccc(C(N)=O)cc3)CC2)c(C)c1 [CBK266424] | 91.7
72 | COc1ccc(Nc2cc(Cl)ccc2C(=O)O)cn1 [CBK022801] | 91.5
73 | COc1cc(-c2cncc(Nc3ccc4c(c3)OC(F)(F)C(F)(F)O4)n2)cc(OC)c1OC [CBK065138] | 94.4
74 | CN1C(=O)COc2ccccc2C/C=C/C[C@H]2NCCC[C@H]21 [CBK292156] | 80.9
75 | CC(C)(C)NC(=O)CNS(=O)(=O)c1ccccc1 [CBK265807] | 85.5
76 | Cc1ccn(CCNCc2cc(-c3ccc(Cl)cc3)c[nH]c2=O)n1 [CBK284727] | 88.4
77 | CC(=O)c1sc(=S)n(N(C)C)c1C [CBK006774] | 91.6
78 | COc1cc(/C=C/C(=O)NCc2ccc(C(=O)O)cc2)ccc1O [CBK286728] | 86.4
79 | O=C(Nc1ccc2n(c1=O)C[C@H]1C[C@@H]2CN(C(=O)NC2CCCCC2)C1)c1cnccn1 [CBK289076] | 86.8
80 | Cn1c2c(c3ccccc31)C(=O)NCC2 [CBK003517] | 89
81 | O=C(OCC=C=CSc1ccc([N+](=O)[O-])cc1)c1ccc(F)cc1 [CBK265650] | 117
82 | Cn1nccc1C(=O)NC(Cc1ccsc1)c1nccs1 (centres unmarked) [CBK285138] | 98.1
83 | O=C(CCn1c(-c2ccccn2)cc2cccnc21)NC1CCCC1 [CBK284965] | 98.3
84 | COc1ccc(C(=O)NCC(=O)Nc2ccc(N3CCCCC3)cc2)cc1OC [CBK295199] | 94.3
85 | Cc1cc(-c2nccnc2NCCCN2CCOCC2)cc(C)c1O [CBK036598] | 92
86 | Cn1cc(CCNC(=O)N(Cc2ccccn2)CC2CCCO2)cn1 (centres unmarked) [CBK306973] | 99.2
87 | O=c1cc2oc3cc(O)c(O)cc3c(-c3ccc(OCc4cccc([N+](=O)[O-])c4)cc3)c-2cc1O [CBK265408] | 75.3

same assay, conditions: human, hela cells, % viability, bulk resorufin, single well

Row | SMILES | viability at 28.5 h, 10 µM [%]
88 | Fc1ccc(-c2ccc3c(c2)COC2(CCNCC2)O3)cc1Cl [CBK060960] | 89.8
89 | O=[N+]([O-])c1cccc(-c2ccc3c(c2)COC2(CCNCC2)O3)c1 [CBK060957] | 105
